# Experimental data published in paper PMC4503722, “Novel Phenotypic Outcomes Identified for a Public Collection of Approved Drugs from a Publicly Accessible Panel of Assays” (PLoS ONE, 2015).
# Like-named read-outs stand apart in the source and are kept apart here.
# What was measured:
# [1] = test system: nuclear β-catenin in C2C12 cells; assay: cells; assay type: cell-based
# NCI-H716 cells = assay: cells; assay type: cell-based, Human; details: for EC50: read-out: GLP 1 Secretion
# INS-1E cells = assay: cells; assay type: cell-based, rat;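 for 5mMGluc INS1E SecretionMod IC50/EC50: secreted insulin quantified by homogeneous immunoassay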
# HeLa cells = assay: cells; assay type: cell-based; details: for EC50: read-out: CellCycle G2/M; for Hela CellCycMod PI 2N IC50/EC50: assay number 14; for Hela CellCycMod PI S Phase IC50/EC50: assay number 15; for Hela CellCycMod PI 4N IC50/EC50: assay number 16; for Hela CellCycMod PI MI IC50/EC50: assay number 17; for Hela CellCycMod PI Cell Number IC50/EC50: assay number 18
# [2] = test system: HCT116 cells treated with a GSK3β inhibitor; assay: cells; assay type: cell-based
# [3] = test system: endothelial tube formation in co-cultures of ECFCs and ADSCs treated with VEGF; assay: cells; assay type: cell-based, human; details: for IC50: read-out: Anti-Angiogenesis
# HT-29 = assay: cells; assay type: cell-based; details: assay number 28; basal
# Colo320 = assay: cells; assay type: cell-based
# SW480 = assay: cells; assay type: cell-based
# [4] = test system: ECFC/ADSC co-culture cell nuclei number
# SNU-C1 = assay: cells; assay type: cell-based
# RKO = assay: cells; assay type: cell-based
# HCT116 = assay: cells; assay type: cell-based
# DLD-1 = assay: cells; assay type: cell-based
# [5] = Mus musculus, C2C12, S2 Table, module primary assay, 20 / 20.1 codes per legend, read-out: Wnt Pathway
# [6] = Rattus norvegicus, INS-1E, read-out: Insulin Secretion
# [7] = read-out: Basal_Viability ATP HCT116
# [8] = Mus musculus, C2C12, IC50 / EC50, C2C12 beta-catenin translocation, read-out: Wnt Pathway
# [9] = Homo sapiens, SW480, basal, read-out: Basal_Viability ATP SW480
# [10] = Homo sapiens, HCT-116, basal, read-out: Basal_Viability ATP HCT116
# [11] = Rattus norvegicus, IC50 / EC50, INS-1E, read-out: Insulin Secretion
# [12] = Homo sapiens, HeLa, IC50 / EC50, HeLa
# [13] = Homo sapiens, HCT-116, GSK3b inhibitor pretreated, read-out: GSK3b inh pretreated_Viability ATP HCT116
# [14] = Homo sapiens, SW480, basal, SW480, read-out: Basal_Viability ATP SW480
# [15] = Homo sapiens, HCT-116, basal, HCT116, read-out: Basal_Viability ATP HCT116
# [16] = Homo sapiens, DLD-1, basal, DLD-1, read-out: Basal_Viability ATP DLD-1
# [17] = Homo sapiens, HCT-116, HCT116 pretreated with GSK3b inhibitor, read-out: GSK3b inh pretreated_Viability ATP HCT116
smiles,measurement,setting,value
CNC(=O)c1cc(Oc2ccc(NC(=O)Nc3ccc(Cl)c(C(F)(F)F)c3)cc2)ccn1 [Sorafenib tosilate],EC50,[1]; [5],> 10 µM
same,EC50,"NCI-H716 cells; Homo sapiens, NCI-H716",> 10 µM
same,EC50,INS-1E cells; [6],> 10 µM
same,EC50,"HeLa cells; Homo sapiens, HeLa, S2 Table, HeLa, 20 = no response at highest concentration",> 10 µM
same,IC50,"[2]; Homo sapiens, HCT-116, read-out: GSK3b inh pretreated_Viability ATP HCT116",1.12 µM
CC(=O)O[C@@]12CO[C@@H]1C[C@H](O)[C@@]1(C)C(=O)[C@H](O)C3=C(C)[C@@H](OC(=O)[C@H](O)[C@@H](NC(=O)OC(C)(C)C)c4ccccc4)C[C@@](O)([C@@H](OC(=O)c4ccccc4)[C@H]21)C3(C)C [NCGC00181306-04],VEGF_ADSC\ECFC Angio CD31 TubeArea IC50/EC50,[3],0.001 µM
same,WntCondMedia_bCatenin C2C12 IC50/EC50,"[1]; assay number 5, concentration response",0.0652 µM
same,Basal_Viability ATP HT-29 IC50/EC50,HT-29,0.001 µM
same,Basal_Viability ATP Colo 320 IC50/EC50,"Colo320; assay number 27, basal",0.001 µM
same,Basal_Viability ATP SW480 IC50/EC50,"SW480; assay number 24, basal",0.001 µM
same,VEGF_ADSC\ECFC Angio Hoechst NucArea IC50/EC50,[4],> 10 µM
same,Basal_Viability ATP SNU-C1 IC50/EC50,"SNU-C1; assay number 30, basal",> 20 µM
same,Basal_Viability ATP RKO IC50/EC50,"RKO; assay number 29, basal",0.001 µM
same,Basal_Viability ATP HCT116 IC50/EC50,"HCT116; assay number 25, basal",0.001 µM
same,Hela CellCycMod PI 2N IC50/EC50,HeLa cells,0.0031 µM
same,Hela CellCycMod PI S Phase IC50/EC50,HeLa cells,> 10 µM
same,Hela CellCycMod PI 4N IC50/EC50,HeLa cells,0.00335 µM
same,Hela CellCycMod PI MI IC50/EC50,HeLa cells,0.00317 µM
same,Hela CellCycMod PI Cell Number IC50/EC50,HeLa cells,0.001 µM
same,GSK3b inh pretreated_Viability ATP HCT116 IC50/EC50,"[2]; assay number 26, GSK3b inhibitor pretreated",0.001 µM
Oc1c(Cl)cc(Cl)c(Cl)c1Cc1c(O)c(Cl)cc(Cl)c1Cl,EC50,[1]; read-out: Wnt Pathway,> 10 µM
same,EC50,NCI-H716 cells,> 10 µM
same,IC50,HCT116; [7],0.0312 µM
same,EC50,INS-1E cells; read-out: Insulin Secretion,> 10 µM
same,EC50,HeLa cells,> 10 µM
Cc1ccc(CCn2c3c(c4cc(Cl)ccc42)CN(C)CC3)cn1 [Dorastine],IC50,"[3]; Homo sapiens, IC50 / EC50, endothelial tube area, ADSC/ECFC co-culture",> 10 µM
same,EC50,[1]; [8],> 10 µM
same,IC50,SW480; [9],9.46 µM
same,IC50,HCT116; [10],13.4 µM
same,EC50,INS-1E cells; [11],4.2 µM
same,EC50,HeLa cells; [12],> 10 µM
same,IC50,"DLD-1; Homo sapiens, DLD-1, basal, read-out: Basal_Viability ATP DLD-1",> 20 µM
same,IC50,[2]; [13],> 20 µM
OCCOc1ccccc1 [NCGC00090731-08],assay 1 Angio CD31 TubeArea max %inh,"[3]; single concentration screen (2 and 10 μM), maximum of all test results, 0 = DMSO, 100 = positive control",8.6%
same,assay 4 WntCondMedia bCatenin fluor/nucarea C2C12 max %stim,"[1]; single concentration screen (2 and 10 μM), maximum of all test results",0.5%
same,assay 11 hNCI-H716 GLP1 Secretion max %stim,"NCI-H716 cells; single concentration screen (2 or 10 μM), maximum of all test results",3.7%
same,assay 7 5mMGluc INS1E InsulinRelease max %stim,"INS-1E cells; single concentration screen (2 and 10 μM), 5 mM glucose, maximum of all test results",0.2%
CCN(CC)CCCC(C)Nc1c2ccc(Cl)cc2nc2ccc(OC)cc12 (stereo not shown) [Mepacrine],EC50,[1]; [8],> 10 µM
same,IC50,"Colo320; Homo sapiens, COLO 320, read-out: Basal_Viability ATP Colo 320",8.44 µM
same,IC50,SW480; [9],3.6 µM
same,IC50,"SNU-C1; Homo sapiens, SNU-C1, basal, read-out: Basal_Viability ATP SNU-C1",3.84 µM
same,IC50,"RKO; Homo sapiens, RKO, read-out: Basal_Viability ATP RKO",3.42 µM
same,IC50,HCT116; [10],5.81 µM
same,EC50,INS-1E cells; [11],4.07 µM
same,EC50,HeLa cells; [12],> 10 µM
same,IC50,"DLD-1; Homo sapiens, DLD-1, read-out: Basal_Viability ATP DLD-1",7.15 µM
same,IC50,[2]; [13],4.48 µM
"CNC(=O)c1cc(Oc2ccc(NC(=O)Nc3ccc(Cl)c(C(F)(F)F)c3)cc2)ccn1 [Sorafenib, reference compound]",activity in the Wnt potentiation module (in words),[1],"None of these agents, however, possessed appreciable activity"
O=C(CCBr)N1CCN(C(=O)CCBr)CC1 [Abbott brand of pipobroman],IC50,[3],1.37 µM
same,EC50,[1]; read-out: Wnt Pathway,> 10 µM
same,IC50,SW480; read-out: Basal_Viability ATP SW480,> 20 µM
same,IC50,HCT116; [7],> 20 µM
same,EC50,INS-1E cells; read-out: Insulin Secretion,> 10 µM
same,EC50,HeLa cells,> 10 µM
same,IC50,DLD-1; read-out: Basal_Viability ATP DLD-1,> 20 µM
same,IC50,[2]; read-out: GSK3b inh pretreated_Viability ATP HCT116,14 µM
CCN(CC)CCNC(=O)c1c(C)[nH]c(/C=C2\C(=O)Nc3ccc(F)cc32)c1C [NCGC00164631-05],VEGF_ADSC\ECFC Angio CD31 TubeArea IC50/EC50,[3],0.0254 µM
same,VEGF_ADSC\ECFC Angio Hoechst NucArea IC50/EC50,[4],> 10 µM
same,5mMGluc_INS1E SecretionMod IC50/EC50,"INS-1E cells; assay number 8, 5 mM glucose",> 33.33 µM
same,Hela CellCycMod PI 2N IC50/EC50,HeLa cells,> 10 µM
same,Hela CellCycMod PI S Phase IC50/EC50,HeLa cells,> 10 µM
same,Hela CellCycMod PI 4N IC50/EC50,HeLa cells,> 10 µM
same,Hela CellCycMod PI MI IC50/EC50,HeLa cells,3.8121 µM
same,Hela CellCycMod PI Cell Number IC50/EC50,HeLa cells,1.2784 µM
"COc1ccc2c(c1)C(=O)N(CCc1ccc(S(=O)(=O)NC(=O)NC3CCCCC3)cc1)C(=O)C2(C)C [gliquidone, reference compound]",EC50,"[1]; Mus musculus, C2C12, Table 2, C2C12, […], 20 / 20.1 coded, read-out: Wnt pot. EC50",> 10 µM
same,IC50,"SW480; Homo sapiens, SW480, 72 h, Table 2, 72 h, Cell TiterGlo, non-adherent, 20 coded, read-out: SW480 viab. IC50",5.5 µM
same,IC50,SW480; [14],5.5 µM
same,IC50,"HCT116; Homo sapiens, HCT-116, 72 h, read-out: HCT-116 viab. IC50, Table 2, basal, 72 h, Cell TiterGlo, non-adherent, 20 coded",10.1 µM
same,IC50,HCT116; [15],10.1 µM
same,EC50,"INS-1E cells; Rattus norvegicus, INS-1E, read-out: Ins. sec. EC50",0.23 µM
same,EC50,INS-1E cells; [6],0.23 µM
same,IC50,"DLD-1; Homo sapiens, DLD-1, 72 h, Table 2, 72 h, Cell TiterGlo, non-adherent, 20 coded, read-out: DLD-1 viab. IC50",5.1 µM
same,IC50,DLD-1; [16],5.11 µM
same,IC50,"[2]; Homo sapiens, HCT-116, read-out: HCT-116 (GSK3β) viab. IC50, Table 2, GSK3β inhibitor LY2090314 20 nM, 72 h, Cell TiterGlo, 20 coded",7 µM
same,IC50,[2]; [17],7.03 µM
CC(C)(C)CC(C)(C)c1ccc(O)c(Cc2ccc(Cl)cc2Cl)c1 [Clofoctol],EC50,[1]; [5],> 10 µM
same,IC50,SW480; [14],3.97 µM
same,EC50,"NCI-H716 cells; Homo sapiens, NCI-H716",0.544 µM
same,IC50,HCT116; [15],5.31 µM
same,EC50,INS-1E cells; [6],> 20 µM
same,IC50,DLD-1; [16],2.18 µM
same,IC50,[2]; [17],4.73 µM
